The values below come from patent publication US20110160228A1, “DIHYDRO-ISO-CA-4 AND ANALOGUES: POTENT CYTOTOXICS, INHIBITORS OF TUBULIN POLYMERIZATION” (CENTRE NATIONAL DE LA RECHERCHE SCIENRIFIQUE (CNRS), priority 2008, published 2011).

Like-named read-outs stand apart in the source and are kept apart here.

The test system of one data set is HCT116. As to the kind of experiment: In vitro cytotoxicity, cell viability with CellTiter-Blue. It is filed as cell-based. As to conditions: Homo sapiens, HCT-116, 72 h. The method, then: (§1) The biological activity of the compounds of the invention was studied in vitro on 7 human cancer cell lines of different tissular origin (HCT116: coloreactal carcinoma; K562: chronic myeloid leukaemia; B16-F10: melanoma; U87: glioblastoma; H1299: non-small cell lung cancer and MDA-MB 231 and MDA-MB 435: breast cancer). The cells chosen for this study were incubated at 37° C. in the presence of one of the compounds added to the culture medium at different concentrations. All the experiments conducted allowed determination of the extent of toxicity of the tested compound, effect thereof on the cell cycle process and capacity thereof to induce cell death by apoptosis.
(§2) The cancer cell lines were obtained from the American Type Culture Collection (Rockville, Md., USA) and were cultured following the supplier's recommendations.
The cells H1299, U87, MDA-MB231, MDA-MB435 and B16F10 were cultured in Dulbecco Minimal Essential Medium (DMEM) containing 4.5 g/l glucose, supplemented with 10% foetal calf serum and 1% glutamine. The K562 and HCT116 cells were cultured in RPMI 1640 medium containing 10% foetal calf serum and 1% glutamine. All the cell lines were held in culture at 37° C. in a humid atmosphere containing 5% CO2. Cell viability was evaluated using the reagent CellTiter-Blue™ (Promega, Wis., USA) paying heed to the manufacturer's instructions. The cells were seeded in 96-well culture plates to the proportion of 5000 cells per well in 50 μl culture medium. […] All the compounds were tested in triplicate for each defined concentration, and each experiment was repeated 3 times. After 72 hours of incubation, 20 μl resazurin were added to each well. After 2 hours of incubation, the emitted fluorescence was measured at 590 nm after excitation at 560 nm using a fluorescence reader of Victor type (Perkin-Elmer, USA).
In general terms: The colour change of resazurin is a common sign of viable cells or microbes.

In the next data set the target is T1, tubulin (Sus scrofa, UniProt P02550+P02554).
T1 construct: from porcine brain in which it forms 20 to 25% of soluble proteins; from tissue; host or cells: porcine brain
T1 sequence (P02554 whole entry): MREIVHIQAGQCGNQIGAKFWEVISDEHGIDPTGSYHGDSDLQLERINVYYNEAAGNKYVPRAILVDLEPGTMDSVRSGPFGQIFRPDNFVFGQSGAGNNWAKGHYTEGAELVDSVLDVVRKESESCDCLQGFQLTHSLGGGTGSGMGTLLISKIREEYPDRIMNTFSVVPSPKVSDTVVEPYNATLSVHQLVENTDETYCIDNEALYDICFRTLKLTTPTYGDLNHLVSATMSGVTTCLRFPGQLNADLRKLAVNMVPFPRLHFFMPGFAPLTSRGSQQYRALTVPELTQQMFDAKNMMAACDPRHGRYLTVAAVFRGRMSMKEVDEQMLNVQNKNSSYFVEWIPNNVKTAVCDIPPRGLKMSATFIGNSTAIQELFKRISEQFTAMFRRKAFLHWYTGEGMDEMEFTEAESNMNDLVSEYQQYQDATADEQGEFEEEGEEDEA
T1 sequence (P02550 whole entry): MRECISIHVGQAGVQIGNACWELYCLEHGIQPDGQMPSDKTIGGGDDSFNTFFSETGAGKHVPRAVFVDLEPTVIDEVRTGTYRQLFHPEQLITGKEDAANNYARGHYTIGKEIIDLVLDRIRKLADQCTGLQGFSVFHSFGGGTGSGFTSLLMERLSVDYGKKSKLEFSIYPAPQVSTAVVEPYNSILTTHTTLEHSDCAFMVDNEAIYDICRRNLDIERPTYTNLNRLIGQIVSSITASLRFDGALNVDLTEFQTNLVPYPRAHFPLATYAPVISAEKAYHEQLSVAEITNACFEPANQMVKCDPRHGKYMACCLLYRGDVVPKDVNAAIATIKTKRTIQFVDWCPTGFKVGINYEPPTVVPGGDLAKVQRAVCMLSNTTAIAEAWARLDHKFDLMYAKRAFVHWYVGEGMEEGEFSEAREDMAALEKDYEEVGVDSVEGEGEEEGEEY
Nature of the data set: Inhibition of tubulin polymerization followed by turbidimetry. It counts as biochemical, porcine. As to conditions: for IC50: tubulin from porcine brain, turbidimetry at 350 nm; for Inhibiting activity of tubulin polymerisation, in words: compared with CA-4 or between the enantiomers. As for the experimental part: These tests were conducted on tubulin purified using the Shelanski method (Shelanski, M. C.; Gaskin, F.; Cantor, C. R. Proc. Natl. Acad. Sci. USA, 1973, 70, 765-768) from porcine brain in which it forms 20 to 25% of soluble proteins. The purification method is based on temperature-dependent assembly-disassembly cycles. Polymerisation of tubulin was followed by turbidimetry using the Gaskin method (Gaskin, F.; Cantor, C. R.; Shelanski, M. L.; J. Bio. Mol., 1974, 89, 737) at a wavelength of 350 nm. The different samples were dissolved in DMSO and incubated 10 minutes at 37° C. then 5 minutes at 0° C.
The compound CA-4 and DMSO were used as reference.

The subject of another data set is MDA-MB 231. Nature of the data set: In vitro cytotoxicity, cell viability with CellTiter-Blue. It counts as cell-based. Conditions: Homo sapiens, read-out: IC50 for different cell lines, M231. As for the experimental part: as §1, §2
The cells H1299, U87, MDA-MB231, MDA-MB435 and B16F10 were cultured in Dulbecco Minimal Essential Medium (DMEM) containing 4.5 g/l glucose, supplemented with 10% foetal calf serum and 1% glutamine. […] Cell viability was evaluated using the reagent CellTiter-Blue™ (Promega, Wis., USA) paying heed to the manufacturer's instructions. […] After 2 hours of incubation, the emitted fluorescence was measured at 590 nm after excitation at 560 nm using a fluorescence reader of Victor type (Perkin-Elmer, USA).

The next data set relates to EAhy926. As to the kind of experiment: Formation of vascular tubes on Matrigel (anti-vascular activity). It counts as cell-based, human. Conditions: treatment time of 3 hours at 0.5 μM or 1 μM. As for the experimental part:
The Matrigel™ is deposited in 96-well culture plates to the proportion of 70 μl/well and left to incubate at 37° C. for 45 minutes to allow polymerization thereof. […] After 3 hours of incubation at 37° C., the cells were observed and photographed using an optical microscope of TE2000 type (Nikon, France) equipped with a camera (FIG. 3).
In parallel, 15,000 EAhy926 cells in suspension in 150 μl of culture medium were seeded in each of the wells containing Matrigel™. […] The effect of the product was observed and photographed after 3 hours of incubation using an optical microscope (FIG. 4).

The test system of data set [1] is mouse P-388 leukemia cells. As to conditions: cited from earlier work.
In the next data set the test system is HCT-15 cells. Conditions: read-out: IC50, cytotoxic effect; cited from earlier work.
Data set [2] has as its system mouse colon adenocarcinoma 26. Conditions: cited from earlier work.
For data set [3] the following is noted: cited from earlier work.
Setting [4] is: 72 hours of incubation, read-out: IC50 for different cell lines, HCT116.

The IC50 is the concentration at which inhibition is half-maximal. Consider `COc1ccc(C(C)c2cc(OC)c(OC)c(OC)c2)cc1F` (centres unmarked) [Compound I-9], for which the IC50 in the data set on HCT116 (setting [4]) is 85 nM; at tubulin, 6000 nM.

For `COc1cc(OC)cc(C(C)c2ccc(OC)c(N)c2)c1` (centres unmarked) [Compound I-38], the 50% inhibitory concentration (IC50) against tubulin came out at 11000 nM.

Take `COc1ccc(C(CC#N)c2cc(OC)c(OC)c(OC)c2)cc1O` (centres unmarked) [Compound I-19]: the half-maximal inhibitory concentration (IC50) in the data set on HCT116 (setting [4]) is 80 nM.

`COc1ccc(C(C)c2cc(OC)c(OC)c(OC)c2)cc1O` (centres unmarked) [Compound I-1] registered an IC50 against tubulin of 3200 nM.

`COc1ccc(C(C)c2cc(OC)c(OC)c(OC)c2)cc1O` (single isomer, unassigned) [Compound I-1a]: at tubulin, the “Inhibiting activity of tubulin polymerisation, in words” value was “the same capacity to inhibit tubulin polymerisation” and the 50% inhibitory concentration (IC50) was 5000 to 6000 nM.

With `COc1ccc(C(C)c2cc(OC)c(OC)c(OC)c2)cc1N` (centres unmarked) [Compound I-21], the IC50 with HCT116 (read-out: IC50 for different cell lines, HCT116, 72 hours of incubation) worked out at 60 nM.

Molecule `COc1cc(OC)cc(C(C)c2ccc(OC)c(O)c2)c1` (centres unmarked) [Compound I-18] registered an IC50 against tubulin of 11000 nM.

`COc1ccc(C(C)c2cc(OC)c(OC)c(OC)c2)cc1O` (single isomer, unassigned) [Compound I-1b]: at tubulin, the “Inhibiting activity of tubulin polymerisation, in words” value is on record as “the same capacity to inhibit tubulin polymerisation” and the IC50 was in the range of 6700 to 8000 nM.

As for `COc1ccc(C(C)c2cc(OC)c(OC)c(OC)c2)cc1OC(=O)CN(C)C` (centres unmarked) [Compound I-14], the IC50 in the data set with HCT116 (72 hours of incubation, in DMSO, read-out: IC50 for different cell lines, HCT116) was 50 nM; in the data set with HCT116 (72 hours of incubation, in water, read-out: IC50 for different cell lines, HCT116), 90 nM; with MDA-MB 231 (MDA-MB-231, 72 hours of incubation, in DMSO) it was 50 nM.

As to `COc1ccc(C(C)c2cc(OC)c(OC)c(OC)c2)cc1OP(=O)(O)O` (centres unmarked) [Compound I-16], the half-inhibitory concentration (IC50) came to 90 nM in the data set on HCT116 (read-out: IC50 for different cell lines, HCT116, 72 hours of incubation, in DMSO); 100 nM in the data set on HCT116 (read-out: IC50 for different cell lines, HCT116, 72 hours of incubation, in water); 50 nM in the data set with MDA-MB 231 (MDA-MB-231, 72 h). For the same molecule, in the data set on EAhy926, the “Number of vascular tubes” value was “major decrease in the number of vascular tubes”.

On to `COc1ccc(C(c2cc(OC)c(OC)c(OC)c2)C(F)F)cc1O` (centres unmarked) [Compound I-20], for which the IC50 in the data set on HCT116 (setting [4]) is 30 nM.

Take `COc1ccc(C=Cc2cc(OC)c(OC)c(OC)c2)cc1O` (single isomer, unassigned) [E isomer of CA-4]: the “Cytotoxic activity, times lower than the natural Z isomer” value in data set [1] was “approximately 60 times”.

`COc1ccc(/C=C\c2cc(OC)c(OC)c(OC)c2)cc1O` [CA-4, combretastatin A-4]: in the data set with HCT-15 cells, the 50% inhibitory concentration (IC50) was 0.9 nM. Besides, the “Antitumor activity in vivo” value in data set [2] is “no antitumor activity is observed”. Further, in data set [3], the Solubility in water entry is “low solubility in water”.
